Data published in US20190365745A1, “USE OF CHRONIC TREATMENT WITH ATR INHIBITORS TO SENSITIZE CANCER CELLS TO PARP INHIBITORS” (Cornell University, priority 2018, published 2019).

Experiments:
Assay type in all cases: cell-based, Human
U2OS cells [1] = assay: DR-GFP assay of HR-mediated repair
Experimental: (§1) Human U2OS, HCT116, hTERT RPE-1, HEK293T, HeLa, U87, T98G, A2780, and human skin fibroblast cells (GM08398 and GM18366) were grown in DMEM media supplemented with 10% bovine calf serum, penicillin/streptomycin and non-essential amino acids. SV40 large T antigen transformed hTERT RPE-1 cells were generated by infecting hTERT RPE-1 cells with a SV40 large T antigen (SV40 LT)-expressing retrovirus and were selected using 500 μg/ml G418. The stable SV40 large T antigen transformed hTERT RPE-1 cell line was then maintained in culture media supplemented 500 μg/ml G418. For chronic treatment with ATR inhibitor (ATRi, VE-821) or ATM inhibitor (ATMi, KU-55933), cells were maintained in media with 5 μM ATR or ATM inhibitor respectively for 8 days before cells were subjected to western blot analysis, proteomic analysis, DR-GFP/EJ5-GFP assay or immunofluorescent staining. For CHK1 inhibitor (UCN-01), cells were treated for 5 days with 0.2 μM of inhibitor before the analysis. Primary human fibroblast cells from control subjects (GM08398) and patients with Seckel syndrome (GM18366, ATR-defective) were obtained from Coriell Institute for Medical Research, Camden, N.J.
For the DR-GFP assay, cells (U2OS, HCT116, hTERT RPE-1, HEK293T, HeLa, U87, T98G, A2780, 293-T-REX-E2F6 cells and SV40 large T antigen transformed hTERT RPE-1) were transfected with the mCherry plasmid or DR-GFP reporter plasmid (pDR-GFP; addgene plasmid 26475) together with a plasmid coding for I-SceI (pCBASceI; addgene plasmid 26477) or DR-GFP reporter plasmid together with an empty plasmid pCAGGS. Two days after transfection, cells were trypsinized, resuspended in PBS and then analyzed by flow cytometry using FACSAria Fusion or Accuri C6 cytometer (BD). In each experiment, the percentage of GFP-positive cells from the sample transfected with empty plasmid pCAGGS was subtracted from the percentage of GFP-positive cells in the sample transfected with I-SceI. The GFP percentage was then normalized by the mCherry transfection efficiency. Each graph was plotted based on at least 3 independent experiments showing mean±SEM (N≥3). For the EJ5-GFP assay, EJ5-GFP reporter plasmid (pimEJ5GFP, addgene plasmid 44026) was used instead of DR-GFP reporter plasmid and the assay was performed as described for DR-GFP assay.

U2OS cells [2] = assay: Real time PCR of mRNA levels; conditions: ATRi 5 μM 8 days or CHK1i 0.2 μM 5 days, normalized to GAPDH
Excerpt: FIG. 9B is a bar graph showing the analysis of HR-mediated repair using the DR-GFP system. Relative fold change of GFP positive U2OS cells treated with CHK1i compared to DMSO treatment control. (Error bars=SEM, N=4, ****P-value<0.0001; one sample-t-test was used for the statistical analysis). FIGS. 9C-9D show a histogram showing representative FACS data (FIG. 9C) and a bar graph showing quantitation of G1, S and G2/M population for cell cycle analysis of CHK1i treated cells (FIG. 9D) (Error bars=SD, N=3). FIG. 9E are bar graphs showing real time PCR analysis of total RNA extracted from U2OS cells treated with DMSO, ATRi (5 μM for 8 days) or CHK1i (0.2 μM for 5 days). Values were normalized to GAPDH mRNA levels. (Error bars=SD, N=3). FIG. 9F is a schematic diagram showing a proposed model of how E2F transcription is regulated through ATR-CHK1 signaling. […] FIG. 9H is a bar graph showing DR-GFP analysis of 293-T-REX-E2F6 cells after 8 days of treatment with DMSO or doxycycline. (Error bars=SEM, N=4). FIG. 9I is a histogram showing cell cycle analysis of 293-T-REX-E2F6 cells after 8 days of treatment with DMSO or doxycycline. FIG. 9J is a schematic diagram showing a model depicting multiple roles of ATR in the control of HR capacity.
Cells cultured from 10 cm dish were collected and lysed in 1 ml of TRIzol (Invitrogen). Chloroform was added to the lysed sample to separate RNA. Separated RNA was precipitated by isopropyl alcohol, followed by two washes with 75% ethanol. 1 μg of extracted RNA from each sample was then reverse transcribed with Bio-Rad iScript cDNA synthesis kit. The samples (˜100 ng) were analyzed in a Roche 480 light cycler in a total of 15 μl containing SYBR green mix and primers. The values were calculated using “absolute quantification/2nd derivative max” in lightcycler 480 program and then normalized to the level of GAPDH.

U2OS cells [3] = assay: Immunoblotting of HR factor abundance; conditions: CHK1 inhibitor 0.2 μM, 5 days
Experimental: FIG. 5A is a schematic diagram of the SILAC/MS experiment. FIG. 5B is a quadrant diagram of the SILAC/MS experiment. Each dot represents a different identified protein. Proteins with abundance reduced two-fold or more after ATRi treatment are shown in the upper-left corner (white quadrant). FIG. 5C is a WB analysis of U2OS cells after 8 days of chronic treatment with 5 μM of ATRi or ATMi. FIG. 5D is a time course WB analysis of U2OS cells during chronic treatment with 5 μM ATRi. FIG. 5E is a WB analysis of U2OS cells at distinct cell cycle stages. Cells were treated with 1 mM hydroxyurea (HU) or 50 ng/ml nocodazole (Noc) for 24 hours. HU treated cells were released for 2.5 hours in HU-free media. FIG. 5F is a WB analysis of U2OS cells untreated or treated for 8 days with 5 μM ATRi.
as §1
(§2) Cells were harvested and lysed in modified radioimmunoprecipitation assay (RIPA) buffer (50 mM Tris-HCl pH 7.5, 150 mM NaCl, 1% tergitol, 0.25% sodium deoxycholate, 5 mM EDTA) supplemented with Complete EDTA-free protease inhibitor cocktail (Roche), 1 mM PMSF, 5 mM sodium fluoride, 10 mM β-glycerol-phosphate and 0.4 mM sodium orthovanadate. Whole cell lysates were cleared with 5 minute centrifugation at 13,000 rpm at 4° C. and mixed with 3×SDS sample buffer (bromophenol blue, stacking gel buffer, 50% glycerol, 3% SDS and 60 mM DTT). After being resolved on SDS-PAGE gels, proteins were then transferred onto polyvinylidene difluoride (PVDF) membranes and detected with designated antibodies.

HCT116 cells = assay: Western blot after chronic CHK1i; conditions: chronic CHK1 inhibition
Experimental: as §2

U2OS cells [4] = assay: Cell cycle analysis (propidium iodide, flow cytometry); conditions: CHK1i 0.2 μM, 5 days
Experimental: Cells were harvested by standard trypsinization and fixed with 70% ethanol. After fixation, cells from each sample were resuspended in PBS, permeabilized using 0.1% Triton X-100 and treated with RNase A (0.8 mg/ml). Then cells were stained with propidium iodide and analyzed by flow cytometry using FACSAria Fusion (BD) or Accuri C6 cytometer (BD) to determine the fraction of cells in different stages of the cell cycle.

SMILES	HR-mediated repair efficiency (DR-GFP, GFP positive cells over DMSO) (U2OS cells [1]; 5 μM, chronic 8 days)	mRNA levels of BRCA1 and RAD51 (U2OS cells [2])	Abundance of BRCA1, RAD51, RRM2 and E2F1 (WB) (U2OS cells [3])	HR efficiency (DR-GFP) (U2OS cells [1]; CHK1i 0.2 μM, 5 days)	Level of E2F1 and abundance of other HR proteins (WB) (HCT116 cells)	Relative number of S phase cells (U2OS cells [4])
O=c1cc(-c2cccc3c2Sc2ccccc2S3)oc(N2CCOCC2)c1 [ATMi, KU-55933]	did not result in major changes in HR-mediated repair efficiency	–	–	–	–	–
CN[C@@H]1C[C@H]2O[C@@](C)([C@@H]1OC)n1c3ccccc3c3c4c(c5c6ccccc6n2c5c31)C(=O)N[C@@H]4O [CHK1i, UCN-01]	–	reduction in the mRNA levels of BRCA1 and RAD51	severely reduced	sharp decrease in HR efficiency	did not lower the level of E2F1 nor the abundance of other HR proteins	increase in the relative number of S phase cells
